Test results as given in patent US20220221458A1, “NOROVIRUS-BINDING PEPTIDE” (Kao Corporation, priority 2019, published 2022).

Tested on: norovirus VLPs (GII.4, GII.3, GII.17)
Assay: In vitro selection by cDNA display against VLPs with appearance frequency analysis of sequences
Details: count among peptide aptamer sequences obtained after in vitro selection cycles (7 cycles GII.4, 5 cycles GII.3 and GII.17)
Experimental: The constructed cDNA display and VLPs were incubated in 100 μL of a dialysis selection buffer (20 mM HEPES (pH 7.4), 150 mM NaCl, and 0.05% s Tween 20) at the concentrations shown in Table 9 below at 25° C. for 30 minutes. Subsequently, the resultant was diluted to 1 mL with the dialysis selection buffer, and was put in Float-A-Lyzer G2 Dialysis Device CE, 1000kD MWCO (manufactured by Spectrum Laboratories, Inc.) and was dialyzed with 1 L of the dialysis selection buffer as the external solution at 25° C. During the dialysis, the external solution was replaced with new one 3 times every 2 hours, and the dialysis was performed overnight (for 8 hours) after the 4th replacement. The dialysis product was concentrated with Amicon Ultra 100K (manufactured by Merck Millipore S.A.S.) at 14,000×g for 5 minutes.
To an immunoplate (C-BOTTOM, CLEAR, MICROLON (registered trademark), HIGH BINDING, manufactured by Greiner Bio-One), 100 μL of 3 μg/mL GII.3 or GII.17 VLP solution was added and immobilization was performed at 4° C. overnight. Subsequently, the solution was discarded, and 200 μL of a blocking agent (EMD Millipore™ Blok™ NSB Blocking agents, Thermo Fisher Scientific) was added, followed by gently stirring at room temperature for 2 hours for blocking. On this occasion, wells not immobilizing the VLP were also subjected to similar blocking to be used in preselection.
The solution was discarded from the wells, the wells were washed with 200 μL of a wash buffer (10 mM Hepes (pH 7.4), 150 mM NaCl, and 0.05% Tween 20) three times, and 100 μL of cDNA display (constructed from 1.5 pmol of mRNA-linker) was then put in the wells not immobilizing the VLP, followed by gently stirring at room temperature for 30 minutes to perform preselection. Subsequently, the supernatant containing cDNA display that had not bound to the blocking agent was put in the wells immobilizing the VLP, followed by gently stirring at room temperature for 30 minutes to be bound to the VLP. The supernatant was discarded, washing with 100 μL of the wash buffer was performed four times, and 100 μL of a 5′ SDS solution was then added, followed by incubation at 50° C. for 15 minutes to elute the bound cDNA display.
Subsequently, the VLP-cDNA display complex obtained above was diluted to 100 μL with a dialysis selection buffer, and 10 μL of a coprecipitating agent (Quick-Precip Plus Solution, manufactured by EdgeBio) and 220 μL of 100% ethanol were added, followed by centrifugation at 20,000×g for 5 minutes. Subsequently, the supernatant was discarded, and 1 mL of 70, ethanol was added for rinsing. […] The PCR program was (a) 98° C. for 2 minutes, (b) 95° C. for 20 seconds, (c) 69° C. for 20 seconds, (d) 72° C. for 20 seconds (steps (b) to (d) were performed 25 cycles), and (e) 72° C. for 1 minute.
After the in vitro selection cycle (7 cycles for GII.4 and 5 cycles for GII.3 and GII.17 based on the libraries of 7 cycles obtained by GII.4 dialysis), a sequence library was prepared by the following method, and the sequence information was analyzed. The preparation of the sequence library and the sequencing were performed according to the 16S Metagenomic Sequencing Library Preparation protocol (manufactured by Illumina, Inc.).
The Fastq file of the obtained sequence was converted to a Fasta file, all of the obtained sequences were simultaneously translated from the first base of the start codon (ATG) at position 115 to the third base of the cysteine codon (TGC) at position 156 of the library sequence (SEQ ID NO: 279) using software MEGA.

| Substance | Appearance Frequency |
| --- | --- |
| 106 (FPTGTT; Designed peptide) [compound 106] | 7 |
| 107 (FRECLY; Designed peptide) [compound 107] | 7 |
| 108 (FWHARL; Designed peptide) [compound 108] | 7 |
| 109 (GCHYQF; Designed peptide) [compound 109] | 7 |
| 110 (GFAISR; Designed peptide) [compound 110] | 7 |
| 111 (GGGVTT; Designed peptide) [compound 111] | 7 |
| 112 (GHFDAR; Designed peptide) [compound 112] | 7 |
| 113 (GMSCGI; Designed peptide) [compound 113] | 7 |
| 114 (GSLDIM; Designed peptide) [compound 114] | 7 |
| 115 (GVNSGH; Designed peptide) [compound 115] | 7 |
| 116 (HHRLHG; Designed peptide) [compound 116] | 7 |
| 117 (HHYRGL; Designed peptide) [compound 117] | 7 |
| 118 (HSSFSS; Designed peptide) [compound 118] | 7 |
| 119 (HYRSKS; Designed peptide) [compound 119] | 7 |
| 120 (IGKGMV; Designed peptide) [compound 120] | 7 |
| 121 (ILISSC; Designed peptide) [compound 121] | 7 |
| 122 (ISRRGH; Designed peptide) [compound 122] | 7 |
| 123 (KRGGMV; Designed peptide) [compound 123] | 7 |
| 124 (KVHGST; Designed peptide) [compound 124] | 7 |
| 125 (LASMWR; Designed peptide) [compound 125] | 7 |
| 126 (LFHPWV; Designed peptide) [compound 126] | 7 |
| 127 (LISRHD; Designed peptide) [compound 127] | 7 |
| 128 (LWNMYD; Designed peptide) [compound 128] | 7 |
| 129 (MHSSLS; Designed peptide) [compound 129] | 7 |
| 130 (NASRFY; Designed peptide) [compound 130] | 7 |
| 131 (NHCPSR; Designed peptide) [compound 131] | 7 |

| Substance | Appearance Frequency |
| --- | --- |
| 132 (NHDVRF; Designed peptide) [compound 132] | 7 |
| 133 (NKYSHR; Designed peptide) [compound 133] | 7 |
| 134 (NPKAHL; Designed peptide) [compound 134] | 7 |
| 135 (NRHLDP; Designed peptide) [compound 135] | 7 |
| 136 (PVLHLH; Designed peptide) [compound 136] | 7 |
| 137 (QDRVTS; Designed peptide) [compound 137] | 7 |
| 138 (QLHRHK; Designed peptide) [compound 138] | 7 |
| 139 (RFLMRH; Designed peptide) [compound 139] | 7 |
| 140 (RFVKRR; Designed peptide) [compound 140] | 7 |
| 141 (RHKVHH; Designed peptide) [compound 141] | 7 |
| 142 (RIVGSA; Designed peptide) [compound 142] | 7 |
| 143 (RRCKLL; Designed peptide) [compound 143] | 7 |
| 144 (RRGDNY; Designed peptide) [compound 144] | 7 |
| 145 (RRRTFH; Designed peptide) [compound 145] | 7 |
| 146 (RSAAGD; Designed peptide) [compound 146] | 7 |
| 147 (RSSSGR; Designed peptide) [compound 147] | 7 |
| 148 (RTGLLS; Designed peptide) [compound 148] | 7 |
| 149 (SDRVIA; Designed peptide) [compound 149] | 7 |
| 150 (STVRHR; Designed peptide) [compound 150] | 7 |
| 151 (STYRSW; Designed peptide) [compound 151] | 7 |
| 152 (SWPFCT; Designed peptide) [compound 152] | 7 |
| 153 (TTKYMW; Designed peptide) [compound 153] | 7 |
| 154 (TVLHHR; Designed peptide) [compound 154] | 7 |
| 155 (VMVGPS; Designed peptide) [compound 155] | 7 |
| 156 (VRNLVH; Designed peptide) [compound 156] | 7 |
| 157 (VRPSNG; Designed peptide) [compound 157] | 7 |

| Substance | Appearance Frequency |
| --- | --- |
| 158 (VWYWTS; Designed peptide) [compound 158] | 7 |
| 159 (VYFIPD; Designed peptide) [compound 159] | 7 |
| 160 (WAGHRH; Designed peptide) [compound 160] | 7 |
| 161 (WVYARR; Designed peptide) [compound 161] | 7 |
| 162 (YRARMS; Designed peptide) [compound 162] | 7 |
| 163 (AFDGLG; Designed peptide) [compound 163] | 6 |
| 164 (AKQRFT; Designed peptide) [compound 164] | 6 |
| 165 (ARNHGS; Designed peptide) [compound 165] | 6 |
| 166 (ATITVW; Designed peptide) [compound 166] | 6 |
| 167 (CLHFAL; Designed peptide) [compound 167] | 6 |
| 168 (DKVCKN; Designed peptide) [compound 168] | 6 |
| 169 (DRWGSK; Designed peptide) [compound 169] | 6 |
| 170 (DSKLHN; Designed peptide) [compound 170] | 6 |
| 171 (DWPYSR; Designed peptide) [compound 171] | 6 |
| 172 (ECHHVH; Designed peptide) [compound 172] | 6 |
| 173 (EEKTRR; Designed peptide) [compound 173] | 6 |
| 174 (FGFREL; Designed peptide) [compound 174] | 6 |
| 175 (FPFYHR; Designed peptide) [compound 175] | 6 |
| 176 (FQYAHW; Designed peptide) [compound 176] | 6 |
| 177 (FTQDAV; Designed peptide) [compound 177] | 6 |
| 178 (GAKELS; Designed peptide) [compound 178] | 6 |
| 179 (GCLSHH; Designed peptide) [compound 179] | 6 |
| 180 (GFGQWI; Designed peptide) [compound 180] | 6 |
| 181 (GKVTFD; Designed peptide) [compound 181] | 6 |
| 182 (GLLIPF; Designed peptide) [compound 182] | 6 |
| 183 (GMDLRS; Designed peptide) [compound 183] | 6 |

| Substance | Appearance Frequency |
| --- | --- |
| 184 (GPCNSA; Designed peptide) [compound 184] | 6 |
| 185 (GRNAGR; Designed peptide) [compound 185] | 6 |
| 186 (HDSRIR; Designed peptide) [compound 186] | 6 |
| 187 (HDYVSE; Designed peptide) [compound 187] | 6 |
| 188 (HFRRRV; Designed peptide) [compound 188] | 6 |
| 189 (HHNAPI; Designed peptide) [compound 189] | 6 |
| 190 (HKASHW; Designed peptide) [compound 190] | 6 |
| 191 (HLAHKK; Designed peptide) [compound 191] | 6 |
| 192 (HLGFHT; Designed peptide) [compound 192] | 6 |
| 193 (HMMSRL; Designed peptide) [compound 193] | 6 |
| 194 (HQTGRL; Designed peptide) [compound 194] | 6 |
| 195 (HSSLVT; Designed peptide) [compound 195] | 6 |
| 196 (HVGLDK; Designed peptide) [compound 196] | 6 |
| 197 (HWLRSV; Designed peptide) [compound 197] | 6 |
| 198 (HYRARY; Designed peptide) [compound 198] | 6 |
| 199 (IGRTFH; Designed peptide) [compound 199] | 6 |
| 200 (IHSPQK; Designed peptide) [compound 200] | 6 |
| 201 (IKAHTR; Designed peptide) [compound 201] | 6 |
| 202 (ILTHQH; Designed peptide) [compound 202] | 6 |
| 203 (ITLIDT; Designed peptide) [compound 203] | 6 |
| 204 (KACAHL; Designed peptide) [compound 204] | 6 |
| 205 (KHAWDL; Designed peptide) [compound 205] | 6 |
| 206 (KSMNNG; Designed peptide) [compound 206] | 6 |
